Data taken from patent publication US20240173375A1, “CHEMOTACTIC AUTOPHAGY-INHIBITING PEPTIDE, COMPOSITIONS AND METHODS RELATED THERETO” (Biotempt B.V., priority 2021, published 2024).
Where two headings read alike, the source gives them in different places. No end group written: not given here.

Tests used:
mTOR kinases = details: cited from earlier work; for activators of mTOR or inhibitors of autophagy, compared with other amino acids: alone or in combination, literature search November 2011
autophagy = details: cited from earlier work; for inhibitory effects on autophagy: human cells (Meijer et al. 2015)
p38 MAPK = test: FPR-signaling assay: p38 MAPK phosphorylation in FPR-expressing cells stimulated with fMLP; format: cell-based; details: FPR-expressing cells; p<0.05 from 60 to 600 seconds
Excerpt: (§1) Both AQGV (SEQ ID NO:11) peptide effects on p38 and PKB-mediated signalling last for the full 600 seconds tested whereas the other kinases tested were not affected throughout. […] The pathway is governing the balance between proteolysis and proteogenesis regulating cytoskeleton changes affecting vascular permeability. It is shown that an autophagy-inhibiting peptide reduces p38 MAPK kinase activated changes as well as reduces PI3K/AKT/mTOR activated induced changes in cell cytoskeleton reorganization affecting endothelial cell contraction and adverse vascular permeability. Autophagy-inhibiting peptide is useful and capable of addressing adverse vascular permeability, such as manifested by edema with vascular leakage, adverse leukocyte extravasation and hypotension, tissue injury and immune responses in human subjects.

PKB (also known as AKT) = test: FPR-signaling assay: PKB (AKT) phosphorylation in FPR-expressing cells stimulated with fMLP; format: cell-based; details: FPR-expressing cells; p<0.05 at 600 seconds
Excerpt: The pathway is governing the balance between proteolysis and proteogenesis regulating cytoskeleton changes affecting vascular permeability.

[1] = test system: STAT3, JNK and P42/p44MAPK/ERK1,2 kinases; test: FPR-signaling assay: STAT3, JNK and P42/p44MAPK/ERK1,2 phosphorylation in FPR-expressing cells; format: cell-based; details: FPR-expressing cells
Excerpt: as §1

CXCR4 = biological target: T1, CXCR4 (Homo sapiens, UniProt P61073); details: cited from earlier work; for agonist behaviour in chemotaxis: CCRF-CEM cell line
T1 construct: In chemotaxis assays using the acute lymphoblastic leukemia cell line CCRF-CEM; endogenous in cells; host or cells: CCRF-CEM

neutrophil = details: cited from earlier work
[2] = Distribution and elimination of intravenously injected [14C]-AQGV from mice; format: in vivo
Experimental: The present study, which was conducted by TNO Biosciences, Utrechtseweg, Netherlands, was designed to provide data on the distribution and metabolism of [14C]-AQGV (SEQ ID NO:11) (Ala-Gln-[1-^14C]Gly-Val) in male CD-1 mice following a single intravenous dose of 50 mg/kg. To this end, mice were sacrificed at 10, 30 and 60 minutes, and 6 and 24 hours after administration of radiolabeled AQGV (SEQ ID NO:11), counts in various tissues were determined, and the radioactivity present in the urine and plasma were analyzed by HPLC.

[3] = cited from earlier work
guinea pig skin = details: internal standard […]; cited from earlier work

T1 sequence (P61073 whole entry): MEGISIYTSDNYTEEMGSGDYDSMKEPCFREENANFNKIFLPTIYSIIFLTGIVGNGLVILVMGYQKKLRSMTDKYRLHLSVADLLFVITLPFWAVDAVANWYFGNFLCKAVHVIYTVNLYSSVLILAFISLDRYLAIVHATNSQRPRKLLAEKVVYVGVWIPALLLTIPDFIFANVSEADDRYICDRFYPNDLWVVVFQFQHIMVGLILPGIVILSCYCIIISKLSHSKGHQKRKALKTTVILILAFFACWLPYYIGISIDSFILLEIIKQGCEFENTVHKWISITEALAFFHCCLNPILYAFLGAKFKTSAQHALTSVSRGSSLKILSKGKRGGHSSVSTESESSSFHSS

C[C@H](N)C(=O)O [L-Alanine]
activators of mTOR or inhibitors of autophagy, compared with other amino acids (mTOR kinases): more potent
Literature-based activity: autophagy (autophagy): DOWN
inhibitory effects on autophagy (autophagy): most prominent

N=C(N)NCCC[C@H](N)C(=O)O [L-Arginine]
activators of mTOR or inhibitors of autophagy, compared with other amino acids (mTOR kinases): more potent
Literature-based activity: mTOR kinases (mTOR kinases): activate
Literature-based activity: autophagy (autophagy): DOWN

NC(=O)CC[C@H](N)C(=O)O [L-Glutamine]
activators of mTOR or inhibitors of autophagy, compared with other amino acids (mTOR kinases): more potent
Literature-based activity: mTOR kinases (mTOR kinases): activate
Literature-based activity: autophagy (autophagy): DOWN
inhibitory effects on autophagy (autophagy): most prominent

NCC(=O)O [L-Glycine]
activators of mTOR or inhibitors of autophagy, compared with other amino acids (mTOR kinases): more potent
Literature-based activity: autophagy (autophagy): DOWN

N[C@@H](Cc1c[nH]cn1)C(=O)O [L-Histidine]
Literature-based activity: mTOR kinases (mTOR kinases): down

CC[C@H](C)[C@H](N)C(=O)O [L-Isoleucine]
activators of mTOR or inhibitors of autophagy, compared with other amino acids (mTOR kinases): more potent
Literature-based activity: mTOR kinases (mTOR kinases): activate
Literature-based activity: autophagy (autophagy): DOWN

CC(C)C[C@H](N)C(=O)O [L-Leucine]
activators of mTOR or inhibitors of autophagy, compared with other amino acids (mTOR kinases): more potent
Literature-based activity: mTOR kinases (mTOR kinases): activate
Literature-based activity: autophagy (autophagy): DOWN
inhibitory effects on autophagy (autophagy): most prominent

NCCCC[C@H](N)C(=O)O [L-Lysine]
activators of mTOR or inhibitors of autophagy, compared with other amino acids (mTOR kinases): no or opposite effects
Literature-based activity: mTOR kinases (mTOR kinases): down

CSCC[C@H](N)C(=O)O [L-Methionine]
activators of mTOR or inhibitors of autophagy, compared with other amino acids (mTOR kinases): no or opposite effects
Literature-based activity: mTOR kinases (mTOR kinases): partial inhibit

O=C(O)[C@@H]1CCCN1 [L-Proline]
activators of mTOR or inhibitors of autophagy, compared with other amino acids (mTOR kinases): more potent
Literature-based activity: mTOR kinases (mTOR kinases): activate
inhibitory effects on autophagy (autophagy): most prominent

C[C@@H](O)[C@H](N)C(=O)O [L-Threonine]
activators of mTOR or inhibitors of autophagy, compared with other amino acids (mTOR kinases): no or opposite effects
Literature-based activity: mTOR kinases (mTOR kinases): down

CC(C)[C@H](N)C(=O)O [L-Valine]
activators of mTOR or inhibitors of autophagy, compared with other amino acids (mTOR kinases): more potent
Literature-based activity: mTOR kinases (mTOR kinases): activate

CSCC[C@H](NC=O)C(=O)N[C@@H](CC(C)C)C(=O)N[C@@H](Cc1ccccc1)C(=O)O [fMLP, N-Formyl-L-methionyl-L-leucyl-L-phenylalanine, reference compound]
changes in phosphorylation status of p38 MAPK on FPR-activation (p38 MAPK): significant
changes in phosphorylation status of PKB (AKT) on FPR-activation (PKB (also known as AKT)): significant
changes in phosphorylation status of STAT3, JNK and P42/p44MAPK/ERK1,2 on FPR-activation [1]: not (or not detectable)

N[C@@H](CCC(=O)O)C(=O)O [glutamate, L-Glutamic Acid]
activators of mTOR or inhibitors of autophagy, compared with other amino acids (mTOR kinases): no or opposite effects

N[C@@H](Cc1ccccc1)C(=O)O [phenylalanine, L-Phenylalanine]
activators of mTOR or inhibitors of autophagy, compared with other amino acids (mTOR kinases): no or opposite effects

N[C@@H](CO)C(=O)O [serine, L-Serine]
activators of mTOR or inhibitors of autophagy, compared with other amino acids (mTOR kinases): no or opposite effects

N[C@@H](Cc1ccc(O)cc1)C(=O)O [tyrosine, L-Tyrosine]
activators of mTOR or inhibitors of autophagy, compared with other amino acids (mTOR kinases): no or opposite effects

ASLW (CXCR4 superagonist) [peptide agonist of CXCR4]
agonist behaviour in chemotaxis (CXCR4): superagonist
sensitivity to the CXCR4 antagonist AMD3100 (CXCR4): insensitive

Acetyl-proline-glycine-proline [AcPGP]
concentration level at which the chemoattractant operates (neutrophil; ELR+ CXC chemokines are functional at nanomolar levels): micromolar level

Ala-Gln-[1-^14C]Gly-Val (AQGV; also: 14C label at C1 of Gly ([1-14C]Gly)) [[14C]-AQGV]
average total recovery of radioactivity ([2]; 10 minutes after dose administration): 83.2%
average total recovery of radioactivity ([2]; 30 minutes after dose administration): 70.5%
average total recovery of radioactivity ([2]; 60 minutes after dose administration): 62.9%
average total recovery of radioactivity ([2]; 6 hours after dose administration): 52.6%
average total recovery of radioactivity ([2]; 24 hours after dose administration): 50.8%
administered radioactivity excreted in feces ([2]; after 24 hours): 2.6%
administered radioactivity excreted in urine ([2]; after 24 hours): 10.2%
radioactivity in the blood, amount if all counts were in intact peptide ([2]; blood, 10 minutes after single i.v. dose of 50 mg/kg): 17.2 µg/g
concentration of "peptide" (radioactivity) ([2]; kidneys, after 10 minutes): 362 µg/g
concentration of "peptide" (radioactivity) ([2]; kidneys, after 24 hours): 61.9 µg/g
concentration of "peptide" (radioactivity) ([2]; liver, after 10 minutes): 105 µg/g
concentration of "peptide" (radioactivity) ([2]; liver, after 24 hours): 37.6 µg/g
concentration of "peptide" (radioactivity) ([2]; lung, after 10 minutes): 75.2 µg/g
time to full hydrolysis of the peptide after administration ([2]; mice): 15 min
parent compound in plasma (HPLC) ([2]; plasma, after 10 minutes, 50 mg/kg i.v.): No parent compound could be detected
concentration of "peptide" (radioactivity) ([2]; skin, after 24 hours): 37.5 µg/g
concentration of "peptide" (radioactivity) ([2]; spleen, after 10 minutes): 74.7 µg/g
concentration of "peptide" (radioactivity) ([2]; spleen, after 24 hours): 39.3 µg/g
concentration of "peptide" (radioactivity) ([2]; testis, after 10 minutes): 85.7 µg/g
concentration of "peptide" (radioactivity) ([2]; thymus, after 24 hours): 43.1 µg/g
administered radioactivity exhaled as volatiles, most likely 14C-CO2 ([2]; up to 24 hours): About 50%
parent compound in urine (HPLC) ([2]; urine, 50 mg/kg i.v.): No parent compound was detected

LQGV (tetrapeptide) [tetrapeptide, sister compound of AQGV]
survival ([3]; 5 mg/kg bodyweight combined with fluid resuscitation and antibiotics, severe cecal ligation and puncture, 30% without peptide): 70%
survival ([3]; 5 mg/kg bodyweight, first 5 days after moderate cecal ligation and puncture, 20% without): 50%
pulmonary nuclear factor-κB activation and pulmonary damage ([3]; mouse, in vivo): reduced
cytokine and E-selectin levels ([3]; peritoneal lavage fluid, lungs, to a lesser extent plasma): reduced

Pro-Gly-Pro [PGP]
potency in evoking neutrophil chemotaxis, less than AcPGP (neutrophil; unacetylated versus acetylated peptide): 4-7 fold

RSVM (CXCR4 partial agonist) [peptide agonist of CXCR4]
agonist behaviour in chemotaxis (CXCR4): partial agonist
sensitivity to the CXCR4 antagonist AMD3100 (CXCR4): insensitive

acyl-YSFKPMPLaR (YSFKPMPLXR; N-acetyl; D-Ala; chemoattractant motif; MOD_RES (1)..(1) …ON; VARIANT (9)..(9) is D-ala) [conformationally constrained decapeptide agonist analog of C5a65-74]
potency relative to unconstrained analog […] (guinea pig skin): at least 10 fold
